Experimental data: article PMC7714073, “Inhibition properties of free and conjugated leupeptin analogues” (FEBS Open Bio, 2020)
Non-standard residues stand in square brackets, D forms with d. Residues, ends and D or L forms follow the SMILES beside them. Ahx = NCCCCCC(=O)O

Assays:
Assay type in all cases: biochemical, porcine
trypsin [1] = target: T1, trypsin (Sus scrofa, UniProt P00761); experiment: Trypsin inhibition, real-time measurements of initial velocities with BAPA (free inhibitors); conditions: apparent Ki, tight-binding (Morrison) fit; 0.1 M NH4HCO3 pH 7.52, 2% (v/v) DMSO, BAPA 1 mM, trypsin 0.25 µM, KM 0.82 mM, read at 410 nm
T1 construct: purchased Sigma-Aldrich; host or cells: porcine pancreas
T1 sequence (P00761 9-231): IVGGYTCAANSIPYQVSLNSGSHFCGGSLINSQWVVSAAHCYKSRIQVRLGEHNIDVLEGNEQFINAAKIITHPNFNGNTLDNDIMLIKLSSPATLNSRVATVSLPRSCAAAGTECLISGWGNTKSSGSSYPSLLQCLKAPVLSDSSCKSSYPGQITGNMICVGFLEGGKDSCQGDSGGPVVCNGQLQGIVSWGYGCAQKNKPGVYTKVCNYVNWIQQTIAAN
Method: Fig. 4 The ratio vi/v 0 is plotted as a function of the inhibitor peptide Ahx–Phe–Leu–Arg–COOH (A) and Ahx–Leu–Leu–Arg–COOH (B). […] Error bars represent standard deviation.
Kinetic parameters were obtained by measuring initial velocities in the presence of selected concentrations of natural leupeptin (0.14–1.62 µM), oxidized leupeptin (8–127 µM), reduced leupeptin (10–413 µM) and peptides 1 and 2 (8–254 µM). All reactions were performed in 0.1 M NH4HCO3 (pH 7.52) and 2% (v/v) DMSO using concentrations of BAPA and trypsin fixed at 1 mM and 0.25 µM, respectively. The reaction was monitored at 410 nm in a Shimadzu UV‐1601 UV‐Vis spectrophotometer.
(§1) For real‐time and end point measurements, the Ki value was estimated by the graphical method of Dixon and Morrison (Eqn 1). Ki was extracted after fitting the data to Eqns (1,2) using GRAPHPAD PRISM 8 (GraphPad Software, San Diego, CA, USA). A K M of 0.82 mM was used for the calculations.(1) vi/vo=1‐([E]+[I]+Kiapp)‐[E]+[I]+Kiapp^2‐4[E][I]/2[E]
(§2) The form of Kappi varies with the type of inhibitor. For competitive inhibitors, as in the case of leupeptin, the Ki value can be calculated from Eqn (2):(2) Kiapp=Ki1+[S]/KM

trypsin [2] = target: T1, trypsin; experiment: Trypsin inhibition, end point measurements with BAPA (conjugated peptide); conditions: for Efficiency: Ki,free/Ki,app = [I]eff/[I]tot, free Ahx–Phe–Leu–Arg–COOH as reference (1.00); for Ki: end point measurements
Method: Fig. 5 vi/v 0 is plotted as a function of the conjugated TiO2–Ahx–Phe–Leu–Arg–COOH (A), ZnO–Ahx–Phe–Leu–Arg–COOH (B) and WorkBeads™‐Ahx‐Phe‐Leu‐Arg‐COOH (C). […] Error bars represent standard deviation.
Kinetic parameters were obtained by mixing substrate, enzyme and conjugate in a plastic Eppendorf tube with varying concentrations of TiO2–peptide 1 0–70 μM, ZnO–peptide 1 0–60 μM and gel beads conjugated to peptide 1 0–60 μM and incubating with end‐over‐end rotation. A total of 150 µL aliquots was withdrawn at five time points for each reaction, and the reaction was stopped in 100 mM acetic acid (pH 3). Absorbance was measured at 410 nm in a UV‐1601 UV‐Vis spectrophotometer (Shimadzu, Columbia, MD, USA).
as §1, §2

trypsin [3] = target: T1, trypsin; experiment: Kinetic measurements of TiO2-peptide conjugate (Vmax, Km; Fig. S2/Table S1); conditions: trypsin with conjugate present, 0.1 M NH4HCO3 pH 7.52, trypsin 0.125 µM, 34 mg conjugate (6.06 nmol peptide/mg TiO2) per reaction
Method: Figure S2. Kinetic measurements of TiO2-peptide conjugate.
Table S1. Extracted values from figure S2. Experiment setup: Buffer 0.1 M NH4HCO3 pH 7.52, [Trypsin] (in eppendorf) = 0.125 µM, 34 mg TiO2-Ahx-Phe-Leu-COOH
(6.06 nmol mod. peptide/mg TiO2) in each reaction.

trypsin [4] = target: T1, trypsin; experiment: Gelatin erosion method: inhibition activity of free and conjugated peptide in gelatin layer; conditions: for Rate (erosion well formation rate, linear regression): gel experiment; for Plateau (relative asymptotic plateau value, asymptotic area ratio at virtually maximal inhibition): gelatin erosion, relative area increase rate vs inhibitor concentration, fitted in GRAPHPAD PRISM 8
Excerpt: The gelatin erosion method that simulates a surface with a protective cover layer is here used to evaluate the function of the peptide in its different conjugation states where the relative area increase rate is plotted against the increasing inhibitor concentration in Fig. 6. The curves obtained as a function of concentration for the free peptide and the TiO2‐conjugated peptide, respectively, are virtually identical. […] This may tentatively be explained by a model where the enzyme molecules, once ‘captured’ by the immobilized peptides, also interact nonspecifically with the ZnO surface, resulting in addition of binding energies and thus also cooperative binding. As has been noted earlier by us, the well area converges to an asymptotic nonzero value ‘plateau’ at high inhibitor concentration that is virtually identical for the different cases. The limit may actually be set by the size of the droplet applied and initial enzyme diffusion. However, the similar limiting values further confirm that the inhibition modes are identical for free and conjugated inhibitor. […] This is actually in accordance with the pattern observed for the ZnO conjugate. […] For details regarding the gelatin erosion method, see Fig. S3 and Table S2.
The experiments were performed as described earlier. The concentration of the free inhibitor Ahx–Phe–Leu–Arg–COOH was ranging from 5 to 50 μM, for ZnO conjugate 1–15 μM and for TiO2 conjugate 1–25 μM.
Table S2. The rates, given by the linear regression, are given below for the gel experiment for free Ahx-Phe-Leu-Arg-COOH and its conjugated state to TiO2 and ZnO.

[5] = apparent Ki of conjugated peptide, five time points, stopped in 100 mM acetic acid pH 3, 410 nm, trypsin 0.25 μM, BAPA 1 mM, Km 0.82 mM, read-out: Ki
[6] = apparent Ki of the stored conjugate, storage time not given (conjugates stored at 4 °C), read-out: Ki stored

| Ki (trypsin [1]) [µM] | Efficiency (trypsin [2]) | Ki (trypsin [2]; [5]) [µM] | Ki (trypsin [2]; [6]) [µM] | Compound | other results |
| --- | --- | --- | --- | --- | --- |
| 270 ± 100 |  |  |  | CC(=O)N[C@@H](CC(C)C)C(=O)N[C@@H](CC(C)C)C(=O)N[C@H](CO)CCCNC(=N)N [reduced leupeptin] |  |
|  | 0.12 | 29 ± 4 | 53 ± 9 | WorkBeads™‐Ahx‐Phe‐Leu‐Arg‐COOH [Ahx–Phe–Leu–Arg–COOH coupled to WorkBeads™ 40/1000 ACT agarose gel beads, 150 nmol·mL^−1 beads] | fraction of the conjugated peptides available for the enzyme (trypsin [2]; according to the efficiency, peptide conjugated to agarose gel beads): about 10% |
| 2.7 ± 0.1 |  |  |  | CC(=O)N[C@@H](CC(C)C)C(=O)N[C@@H](CC(C)C)C(=O)N[C@@H](CCCNC(=N)N)C(=O)O [oxidized leupeptin] |  |
| 0.088 ± 0.008 |  |  |  | CC(=O)N[C@@H](CC(C)C)C(=O)N[C@@H](CC(C)C)C(=O)N[C@H](C=O)CCCNC(=N)N [Leupeptin, Ac–Leu–Leu–Arg–CHO] |  |
|  | 0.32 | 11 ± 2 | 7.1 ± 1.1 | TiO2–Ahx–Phe–Leu–Arg–COOH | Km (trypsin [3]; no inhibitor: 2.9 ± 0.8): 6.4 ± 1.2 mM; Vmax (trypsin [3]; no inhibitor: 720 ± 100): 250 ± 30; Rate (erosion well formation rate, linear regression) (trypsin [4]; 1 μM inhibitor): 4.0 ± 0.4 mm^2/ μMtrypsin; Rate (erosion well formation rate, linear regression) (trypsin [4]; 5 μM inhibitor): 3.5± 0.4 mm^2/ μMtrypsin; Rate (erosion well formation rate, linear regression) (trypsin [4]; 10 μM inhibitor): 3.6 ± 0.1 mm^2/ μMtrypsin; Rate (erosion well formation rate, linear regression) (trypsin [4]; 15 μM inhibitor): 2.00 ± 0.1 mm^2/ μMtrypsin; Rate (erosion well formation rate, linear regression) (trypsin [4]; 25 μM inhibitor): 2.2 ± 0.3 mm^2/ μMtrypsin; Plateau (relative asymptotic plateau value, asymptotic area ratio at virtually maximal inhibition) (trypsin [4]): 0.42 ± 0.21 |
| 9.5 ± 1 |  |  |  | CC(C)C[C@H](NC(=O)CCCCCN)C(=O)N[C@@H](CC(C)C)C(=O)N[C@@H](CCCNC(=N)N)C(=O)O [Ahx–Leu–Leu–Arg–COOH] (H-[Ahx]LLR-OH) |  |
|  | 0.77 | 4.4 ± 1.3 | 7.6 ± 1.5 | ZnO–Ahx–Phe–Leu–Arg–COOH | Rate (erosion well formation rate, linear regression) (trypsin [4]; 1 μM inhibitor): 3.1 ± 0.5 mm^2/ μMtrypsin; Rate (erosion well formation rate, linear regression) (trypsin [4]; 5 μM inhibitor): 2.3 ± 0.50 mm^2/ μMtrypsin; Rate (erosion well formation rate, linear regression) (trypsin [4]; 10 μM inhibitor): 2.2 ± 0.4 mm^2/ μMtrypsin; Rate (erosion well formation rate, linear regression) (trypsin [4]; 15 μM inhibitor): 2.0 ± 0.5 mm^2/ μMtrypsin; Plateau (relative asymptotic plateau value, asymptotic area ratio at virtually maximal inhibition) (trypsin [4]): 0.46 ± 0.02 |
| 3.4 ± 0.2 |  |  |  | CC(C)C[C@H](NC(=O)[C@H](Cc1ccccc1)NC(=O)CCCCCN)C(=O)N[C@@H](CCCNC(=N)N)C(=O)O [Ahx–Phe–Leu–Arg–COOH, 6‐aminohexanoic acid (Ahx)–Phe–Leu–Arg–COOH] (H-[Ahx]FLR-OH) |  |
